According to US20150175585A1, “FUSED QUINONIC COMPOUNDS” (CENTRO ATLANTICO DEL MEDICAMENTO S.A (CEAMED, S.A.), priority 2012, published 2015):

Experiments:
JAK2 = JAK2 phosphorylation western blot assay; assay type: cell-based, human; settings: 10 microM, HEL or K562 cells (table does not say which)
Experimental: (§1) The Human Erythroleukemia cell line HEL and the human Chronic Myeloid Leukemia cell line K562 were cultured in RPM I 1640 medium containing 10% fetal bovine serum (FBS) and 50 U/ml penicillin/50 U/ml streptomycin at 37° C. in a 5% CO2 humidified atmosphere to a density of 300.000 viable cells/mL in presence of WP1066 (positive control of phosphorylation inhibition) (Verstovsek et al., 2008) or CM-363 at concentrations of 1, 5 and 10 μM. Cell culture reagents were all obtained from BioWhittaker® (Lonza, Verniers, Belgium). Cell growth and viability was determined by propidium iodide (fluorescent dye) exclusion method using the Accuchip 4× Counting Kit and the ADAM automatic cell counter (Digital-Bio, NanoEntek, Ic., Washington St, Mass., USA).As a control of unspecific phosphorylation, some cells in each experiment were exposed to vehicle (negative control of phosphorylation inhibition) (0.1% DMSO).
(§2) For total protein extraction, cells were scraped with RIPA 1× lysis buffer (25 mM Tris-HCl pH 7.6, 150 mM NaCl, 1% NP-40, 1% sodium deoxycholate, 0.1% SDS, no. 89900, Thermo Scientific, Rockford, Ill., USA) supplemented with 1× protease and 1× phosphatase inhibitor cocktails (100× Halt™ Protease Inhibitor Cocktail, no. 87786 and 100× Halt Phosphatase Inhibitor Cocktail, no. 78420, both from Thermo Scientific, Rockford, Ill., USA). An aliquot of each extract was preserved for protein quantification by bicinchoninic acid assay (Pierce® BCA Protein Assay Kit, no. 23225, Thermo Scientific, Rockford, Ill., USA).
(§3) Proteins were solubilized in sample buffer containing 0.0625 M Tris-HCl, pH 6.8, 2.3% (wt/vol) SDS, 10% (vol/vol) glycerol, 5% (vol/vol) f3-mercaptoethanol, and 0.001% (wt/vol) bromophenol blue and boiled at 95° C. for 5 min. Equal amounts (50 μg) of each sample were electrophoresed on 8-10% sodium dodecyl sulfate-polyacrylamide gel electrophoresis (SDS-PAGE) and transferred to nitrocellulose membranes (iBlot® Gel Transfer Stacks, Nitrocellulose, no. IB4010-02, Invitrogen, Barcelona, Spain) as described previously (Fernandez, L, et al., Endocrinology, 13, 1815-1824, 1998; B. Guerra et al., J. Neurochem, 91, 99-109, 2004; B. Guerra et al., J. Appl. Physiol., 102, 1786-1792, 2007; B. Guerra et al., J. Appl. Physiol., 111, 715-725, 2011). The nitrocellulose membranes were then removed from the iBlot® Dry GelTransfer Device (no. IB1001EU, Invitrogen, Barcelona, Spain) and placed in a Ponceau S staining solution (0.5% Ponceau S and 1% glacial acetic acid in water) to verify equal loading of protein in the control and treated samples. After the membranes were stained for 5 min, they were rinsed for 2 min and examined. Equal loading of protein was verified, and the membranes were rinsed for an additional 10 min and immunoscreened. Membranes were blocked with 5% blotting grade blocker nonfat dry milk in Tris Buffered Saline with 0.05% Tween 20 (TBST; blotto-blocking buffer) for at least […]) at room temperature. They were washed thrice in TBS with 0.1% Tween 20 (TBST-0.1). Next, the membranes were incubated over night at 4° C. with the appropriate anti-phospho-antibodies (described below) all diluted (1:1000) in 1% bovine serum albumin (BSA)-1% blotto in TBST (BSA-blotto blocking buffer). […] Membranes were stripped of bound antibodies by incubation in stripping buffer (Restore™ Western Blot Stripping Buffer, no. 21059, Thermo Scientific, Rockford, Ill., USA) at room temperature for 30 min with agitation. Membranes were washed for 3×10 min in TBST-0.1, blocked with blotto-blocking buffer for at least 1 h and re-probed with the corresponding anti-total kinase antibodies (described below) all diluted (1:1000) in blotto-blocking buffer. […]

STAT5 = STAT5 phosphorylation western blot assay; assay type: cell-based, human; settings: 10 microM, HEL or K562 cells (table does not say which)
Experimental: as §1, §2, §3

Structure (SMILES): N#Cc1ccc(C2C3=C(CCCC3=O)OC3=C2C(=O)c2ccccc2C3=O)cc1 (centres unmarked) [Compound 4, 4-(1,6,11-trioxo-2,3,4,6,11,12-hexahydro-1H-benzo[b]xanthen-12-yl)benzonitrile]
- Activity (inhibition of JAK2 phosphorylation) (JAK2): ++ (++represents an inhibition at 10 microM > 50%)
- Activity (inhibition of STAT5 phosphorylation) (STAT5): +++ (+++represents an inhibition at 10 microM > 75%)
